The values below come from patent US5571816A, “Pyrimidines” (Hoechst Aktiengesellschaft, priority 1992, dated 1996).

Counter-ions that a name gives are not always drawn. Like-named read-outs stand apart in the source and are kept apart here.

Test [1] has as its system serum lipoproteins. Description: Effect on serum lipoproteins of normolipemic male rats in a subchronic experiment. Type of test: in vivo. To be noted: Rattus norvegicus, po, by stomach tube, 7 administrations; for change in vivo at 3 mg/kg: 3 mg/kg/day; for change in vivo at 10 mg/kg: 10 mg/kg/day; for change in vivo at 30 mg/kg: 30 mg/kg/day; for change in vivo at 1 mg/kg: 1 mg/kg/day. On the procedure:
3. In vivo, the increased LDL receptor activity in experimental animals is reflected by reduction in the lipoprotein fractions which can be metabolized by the LDL receptor (apoB/E receptor), i.e. a reduction in the LDL and VLDL levels is observed. The following test was carried out:
Effect on serum lipoproteins of normolipemic male rats in a subchronic experiment
Groups of in each case 10 male rats of the HOE: WISKf (SPF 71) strain with an initial weight above 180 g received once a day (in the morning) the test product or the comparison product in 1% aqueous ®Tylose MH 300 solution by stomach tube (0.5 ml/100 g of body weight); the control group in each case received only the vehicle. The last (7th) administration took place 24 hours before removal of blood and sacrifice. There was free access to food and water during the test. The food was withdrawn 24 hours before the removal of blood.
The serum from all 10 rats in a group was pooled for the analysis of the serum lipoproteins. The serum lipoproteins were separated with a preparative ultracentrifuge (KONTRON TGA 65, Rotor BECKMAN 50.4 Ti).
The following conditions specified by Koga, S., Horwitz, D. L., and Scanu, A. M., Journal of Lipid Research 10, 577 (1969) and Havel, R. J., Eder, H. A., and Bragdon, H. H., J. Clin. Invest. 34, 1345 (1955) were used to separate VLDL and LDL: 1. VLDL: Density<1.006, 40,000 rpm for 16 hours 2. LDL: Density 1.006-1.04, 40,000 rmp for 16 hours
Test kits from BOEHRINGER/Mannheim were used for the enzymatic determination of cholesterol and triglycerides in the separated lipoprotein fractions (cf. Siedel, J., Schlumberger, H., Klose, S., Ziegenhorn, J. and Wahlefeld, A. W., J. Clin. Chem. Clin. Biochem. 19, 838 (1981) and Wahlefeld, A. W., in: H. O. Bergmeier: Methoden der enzymatischen Analyse (Methods of Enzymatic Analysis), 2nd edition, Volume II, Verlag Chemie 1974, page 1878). The proteins were determined by the method of Lowry (Lowry, O. H., Roseborough, N. H., Farr, A. L. and Randell, R. J., J. Biol. Chem. 193, 265 (1951)).
Clofibrate was used as comparison product.

Test [2] concerns LDL receptor mRNA. The test is described as follows: Stimulation of LDL receptor mRNA expression in HepG2 cells (Northern blot). The class given is cell-based. The conditions noted are these: Homo sapiens; HepG2, 2 × 10^-6 M, 16 h; control = 100%; ratio to β-actin mRNA. Here is the method: 1a. In the human hepatocytoma cell line HepG2, which is recognized everywhere as model, the LDL receptor mRNA levels are increased by the compounds of the formula I (Table I).
(§1) The mRNA was prepared by the method described by Chomczynski, P. and Sacchi, N., in Anal. Biochem. 162, 156-159 (1987). In the case of organs (such as, for example, liver), the deep-frozen tissue was previously homogenized on dry ice in a mortar, and the mRNA was further concentrated by means of oligo dT by standard methods (cf. Sambrook, J., Fritsch, E. F. and Maniatis, T., Molecular Cloning, second edition, Cold Spring Harbor (1989); this collection of methods also includes descriptions of all the other relevant standard processes of molecular biology used here). 5 to […] of the dissolved mRNA obtained in this way were denatured by standard processes and fractionated on 1% horizontal agarose gels. The mRNA was transferred by capillary blotting to Hybond N membranes (Amersham). Used as specific hybridization probe was a partial LDL receptor cDNA clone and as internal standard was a plasmid which contained a β-actin gene. Both plasmids were labeled using a random primer kit from Amersham to a specific activity of 5×10^9 cpm/μg. Prehybridization, hybridization and washing of the filters took place by standard processes. The filters were subsequently exposed on Cronex 4 films (Dupont) in the presence of an intensifying screen at -70° C. overnight or for up to 14 days, and the hybridization signals were quantified from the intensity of blackening of the film using a commercially available laser densitometer. Subsequently, the quotient of the intensity of the LDL receptor band and of the actin band was determined as internal standard to correct for variations in yield.
The HepG2 cells were incubated in RPMI 1640 standard medium with fetal calf serum (final concentration 10%). Serum-free RPMI medium was used as induction control. Subsequently, the complete mRNA was prepared and, by means of the Northern blot technique, the relevant LDL receptor mRNA and β-actin mRNA levels were determined. The quotient of the LDL receptor mRNA signal and of the β-actin mRNA signal of the control (without added substance) was set equal to 100%, and the stimulation above this of the LDL receptor mRNA levels achieved under the influence of the compounds was expressed as percentage of the control.

For test [3], the system named is LDL receptor mRNA. Description: Stimulation of LDL receptor mRNA expression in rat livers (Northern blot). Type of test: in vivo. To be noted: rat liver, 30 mg/kg, 6 hours after administration; untreated control = 100%. Here is the method: 1b. The LDL receptor mRNA levels are also raised in rat livers by compounds of the formula I within a few hours (Table II).
as §1
Liver tissue was removed and shock-frozen in liquid nitrogen.
Subsequently, the mRNA was isolated as described and, by means of the Northern blot technique, the relative LDL receptor mRNA levels were determined. The mRNA level of untreated control animals was set equal to 100%, and the stimulation of the LDL receptor mRNA was calculated as a percentage of the […]

[4] abbreviates: read-out: Serum LDL cholesterol, % change from control at end of treatment.
Setting [5] is: read-out: Serum LDL protein, % change from control at end of treatment.
Where [6] appears, read: read-out: Serum VLDL cholesterol, % change from control at end of treatment.
[7] abbreviates: read-out: Serum VLDL protein, % change from control at end of treatment.
Where [8] appears, read: read-out: Serum VLDL triglycerides, % change from control at end of treatment.

Regarding `CC1(C)CN(c2ncc(C(=O)N(c3cccc(C(F)(F)F)c3)C3CCCC3)c(N)n2)C(=O)N1` [Example 42], the change in vivo at 3 mg/kg is -34% in test [1] (setting [4]); -22% in test [1] (setting [5]); -23% in test [1] (setting [6]); -11% in test [1] (setting [7]); -29% in test [1] (setting [8]). The change in vivo at 10 mg/kg was -29% in test [1] (setting [4]); -9% in test [1] (setting [5]); -23% in test [1] (setting [6]); -10% in test [1] (setting [7]); -29% in test [1] (setting [8]). In addition, the change in vivo at 30 mg/kg in test [1] (setting [4]) is -48%; in test [1] (setting [5]), -29%; in test [1] (setting [6]), -70%; in test [1] (setting [7]) it was -40%; in test [1] (setting [8]), -61%. Besides, in test [2], the activity at 2 µM amounted to 180%. In addition, the “LDL receptor mRNA” value in test [3] came to 312%.
In the case of `CCN(C(=O)c1cnc(N2CC(C)(C)NC2=O)nc1N)c1cccc(C(F)(F)F)c1` [Example 2, 4-amino-2-(4,4-dimethyl-2-oxo-1-imidazolidinyl)pyrimidine-5-carboxylic acid N-ethyl-N-(3-trifluoromethylphenyl)amide hydrochloride], the change in vivo at 1 mg/kg in test [1] (setting [4]) was -28%; in test [1] (setting [5]), -44%; in test [1] (setting [6]), -22%. The change in vivo at 3 mg/kg in test [1] (setting [4]) is 40%; in test [1] (setting [5]), -28%; in test [1] (setting [6]), -30%; in test [1] (setting [7]), -7%; in test [1] (setting [8]) it was 40%. Moreover, the change in vivo at 10 mg/kg in test [1] (setting [4]) is -32%; in test [1] (setting [5]) it was -28%; in test [1] (setting [6]) it was -41%; in test [1] (setting [7]), -28%; in test [1] (setting [8]), -26%. Besides, the change in vivo at 30 mg/kg in test [1] (setting [4]) is -75%; in test [1] (setting [5]) it was -73%; in test [1] (setting [6]) it was -96%; in test [1] (setting [7]), 40%; in test [1] (setting [8]), -81%. Besides, the activity at 2 µM in test [2] was found to be 175%. For the same compound, the “LDL receptor mRNA” value in test [3] is on record as 300%.
For `CC(C)N(C(=O)c1cnc(N2CC(C)(C)NC2=O)nc1N)c1cccc(C(F)(F)F)c1` [Example 4, 4-amino-2-(4,4-dimethyl-2-oxo-1-imidazolidinyl)pyrimidine-5-carboxylic acid N-isopropyl-N-(3-trifluoromethylphenyl)amide hydrochloride], the change in vivo at 10 mg/kg in test [1] (setting [4]) is -39%; in test [1] (setting [5]), -33%; in test [1] (setting [6]), 2%; in test [1] (setting [7]) it was -18%. In addition, the change in vivo at 30 mg/kg in test [1] (setting [4]) was -68%; in test [1] (setting [5]), -53%; in test [1] (setting [6]), -70%; in test [1] (setting [7]), -13%; in test [1] (setting [8]) it was -29%. Further, in test [2], the activity at 2 µM came to 205%. For the same compound, the “LDL receptor mRNA” value in test [3] came out at 221%.
Regarding `CCC(C)N(C(=O)c1cnc(N2CC(C)(C)NC2=O)nc1N)c1cccc(C(F)(F)F)c1` (stereo not drawn) [Example 8, 4-amino-2-(4,4-dimethyl-2-oxo-1-imidazolidinyl)-pyrimidine-5-carboxylic acid N-sec.-butyl-N-(3-trifluoromethylphenyl)amide hydrochloride], the change in vivo at 30 mg/kg in test [1] (setting [4]) was -30%; in test [1] (setting [5]), -18%; in test [1] (setting [6]), -39%; in test [1] (setting [7]), -26%; in test [1] (setting [8]), -37%. Besides, the activity at 2 µM in test [2] turned out to be 237%.
